Experimental data as given in EP4667483A1, “HUMAN TRANSFERRIN RECEPTOR-BINDING PEPTIDE” (JCR Pharmaceuticals Co., Ltd., priority 2023, dated 2024).
Numbered stars: 1 amine (or outer) side, 2 acyl side, 3 side chain; on linkers, the order of the positions; unused ones are H or OH. Bridge positions count the residues as written; N and C are the ends. Square brackets hold non-standard residues; d marks the D form. Peptide text beside a SMILES is read from it. * marks the point of attachment. NH(1-deoxy-D-glucityl) = OC[C@@H](O)[C@@H](O)[C@H](O)[C@@H](O)CN*; Trp(1-CH2COOH) = N[C@@H](Cc1cn(CC(=O)O)c2ccccc12)C(=O)O; CH2CON(CH2CH2)2NCH2COOH = O=C(O)CN1CCN(C(=O)C*)CC1; NMePhe(4-COOH) = CN[C@@H](Cc1ccc(C(=O)O)cc1)C(=O)O; X1 = O=C([C@H](Cc1cccc(C(=O)[*:3])c1)N[*:1])[*:2]; Nle(6-morpholino) = N[C@@H](CCCCN1CCOCC1)C(=O)O; Phe(3-COOH) = N[C@@H](Cc1cccc(C(=O)O)c1)C(=O)O; Trp(7-aza) = N[C@@H](Cc1c[nH]c2ncccc12)C(=O)O; NMePhe(3-Cl) = CN[C@@H](Cc1cccc(Cl)c1)C(=O)O; 3Pal(6-OMe) = COc1ccc(C[C@H](N)C(=O)O)cn1; 3Pal(6-NH2) = Nc1ccc(C[C@H](N)C(=O)O)cn1; NMeW = CN[C@@H](Cc1c[nH]c2ccccc12)C(=O)O; Lys(N3) = [N-]=[N+]=NCCCC[C@H](N)C(=O)O; NMeY = CN[C@@H](Cc1ccc(O)cc1)C(=O)O; Nva(3-Et) = CCC(CC)[C@H](N)C(=O)O; NMeF = CN[C@@H](Cc1ccccc1)C(=O)O; 4Pal = N[C@@H](Cc1ccncc1)C(=O)O; PEG4 = NCCOCCOCCOCCOCCC(=O)O; Carboxymethyl = O=C(O)C*

Key:
[1] = molecular target: T1, human transferrin receptor (hTfR) (Homo sapiens, UniProt P02786); assay: SPR measurement under pH 7.4 conditions (Biacore T200, CM3 chip, hTfR captured by His Tag antibody); assay type: binding; settings: read-out: hTfR SPR pH7.4 KD
T1 sequence (P02786 whole entry): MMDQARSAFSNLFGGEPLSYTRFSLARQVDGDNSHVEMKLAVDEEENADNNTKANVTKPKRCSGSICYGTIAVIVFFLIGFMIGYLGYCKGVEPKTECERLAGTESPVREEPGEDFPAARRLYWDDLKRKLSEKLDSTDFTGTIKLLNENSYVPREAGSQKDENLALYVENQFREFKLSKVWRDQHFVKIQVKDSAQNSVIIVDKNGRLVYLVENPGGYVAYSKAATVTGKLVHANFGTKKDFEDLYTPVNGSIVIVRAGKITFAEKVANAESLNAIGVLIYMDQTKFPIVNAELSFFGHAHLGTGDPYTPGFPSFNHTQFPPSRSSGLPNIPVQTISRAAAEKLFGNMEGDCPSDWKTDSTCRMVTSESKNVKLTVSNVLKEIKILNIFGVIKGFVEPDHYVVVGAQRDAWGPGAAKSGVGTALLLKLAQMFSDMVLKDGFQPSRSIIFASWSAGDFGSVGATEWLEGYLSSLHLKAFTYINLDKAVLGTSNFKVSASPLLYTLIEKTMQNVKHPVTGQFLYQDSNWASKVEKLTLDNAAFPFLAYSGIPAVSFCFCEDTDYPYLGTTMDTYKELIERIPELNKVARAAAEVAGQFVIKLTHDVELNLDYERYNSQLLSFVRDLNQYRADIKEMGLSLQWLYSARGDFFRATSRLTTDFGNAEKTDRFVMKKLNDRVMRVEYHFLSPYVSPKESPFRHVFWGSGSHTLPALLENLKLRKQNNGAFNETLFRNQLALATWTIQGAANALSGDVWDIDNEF

[2] = molecular target: T1, human transferrin receptor (hTfR); assay: SPR measurement under pH 6.0 conditions (Biacore T200, NTA chip, immobilized hTfR); assay type: binding; settings: read-out: hTfR SPR pH6.0 KD
[3] = SPR, pH 7.4, peptide with the linker named in the table
[4] = SPR, pH 6.0, peptide with the linker named in the table

| Compound | Kd [1, 3] [nM] | Kd [2, 4] [nM] | Kd ([1]; pH 7.4, single-cycle kinetics) [nM] | Kd ([2]; pH 6.0, single-cycle kinetics) [nM] | other results |
| --- | --- | --- | --- | --- | --- |
| CCC(CC)[C@@H]1NC(=O)[C@H](Cc2ccc(O)cc2)NC(=O)[C@H](Cc2ccc(O)cc2)NC(=O)[C@H](CC(N)=O)NC(=O)[C@H](Cc2c[nH]c3ccccc23)N(C)C(=O)[C@H](C(C)C)NC(=O)[C@H](Cc2ccccc2)N(C)C(=O)[C@H](C(C)C)NC(=O)[C@H](C)NC(=O)CSC[C@@H](C(=O)NCCOCCOCCOCCOCCC(N)=O)NC(=O)[C@H](Cc2ccc(O)cc2)N(C)C(=O)[C@H](Cc2cccc(C(=O)NCCOCCOCCOCCOCCC(=O)O)c2)NC(=O)[C@H](CCCNC(=N)N)NC(=O)[C@H](CCCCN)NC(=O)[C@H]([C@@H](C)CC)NC1=O [compound 120] ({CH2CO}-AV[NMeF]V[NMeW]NYY[Nva(3-Et)]IKR[X1](PEG4)[NMeY]C[PEG4]-NH2; thioether N-15) | 5.8 | 13.2 |  |  |  |
| CC[C@H](C)[C@@H]1NC(=O)[C@H](Cc2ccc(OCC(=O)NC[C@H](O)[C@@H](O)[C@H](O)[C@H](O)CO)cc2)NC(=O)[C@H](Cc2ccc(O)cc2)NC(=O)[C@H](CC(N)=O)NC(=O)[C@H](Cc2c[nH]c3ncccc23)NC(=O)[C@H](C(C)C)NC(=O)[C@H](Cc2cccc(Cl)c2)N(C)C(=O)[C@H](C(C)C)NC(=O)[C@H](C)NC(=O)CSC[C@@H](C(=O)NCCOCCOCCOCCOCCC(N)=O)NC(=O)[C@H](Cc2ccc(O)cc2)N(C)C(=O)[C@H](Cc2ccncc2)NC(=O)[C@H](CCCCN2CCOCC2)NC(=O)[C@H](CCC(=O)NC[C@H](O)[C@@H](O)[C@H](O)[C@H](O)CO)NC(=O)[C@H]([C@@H](C)CC)NC1=O [compound 27] |  |  | 3.03 | 15.4 |  |
| CC[C@H](C)[C@@H]1NC(=O)[C@H](Cc2ccc(OC)cc2)NC(=O)[C@H](Cc2ccc(N)nc2)NC(=O)[C@H](CC(N)=O)NC(=O)[C@H](Cc2c[nH]c3ccccc23)NC(=O)[C@H](C(C)C)NC(=O)[C@H](Cc2cccc(Cl)c2)N(C)C(=O)[C@H](C(C)C)NC(=O)[C@H](C)NC(=O)CSC[C@@H](C(=O)NCCOCCOCCOCCOCCC(N)=O)NC(=O)[C@H](Cc2ccc(C(=O)O)cc2)N(C)C(=O)[C@H](Cc2cccc(C(=O)NCCOCCOCCOCCOCCC(=O)O)c2)NC(=O)[C@H](CCCNC(=N)N)NC(=O)[C@H](CCC(N)=O)NC(=O)[C@H]([C@@H](C)CC)NC1=O [compound 115] ({CH2CO}-AV[NMePhe(3-Cl)]VWN[3Pal(6-NH2)]Y(Me)IIQR[X1](PEG4)[NMePhe(4-COOH)]C[PEG4]-NH2; thioether N-15) | 1.84 | 12.6 |  |  |  |
| CCC(CC)[C@@H]1NC(=O)[C@H](Cc2ccc(O)cc2)NC(=O)[C@H](Cc2ccc(O)cc2)NC(=O)[C@H](CC(N)=O)NC(=O)[C@H](Cc2c[nH]c3ccccc23)N(C)C(=O)[C@H](C(C)C)NC(=O)[C@H](Cc2ccccc2)N(C)C(=O)[C@H](C(C)C)NC(=O)[C@H](C)NC(=O)CSC[C@@H](C(=O)NCC(=O)N[C@@H](CCCCN=[N+]=[N-])C(N)=O)NC(=O)[C@H](Cc2ccc(C(=O)O)cc2)N(C)C(=O)[C@H](Cc2cccc(C(=O)NCCOCCOCCOCCOCCC(=O)O)c2)NC(=O)[C@H](CCCNC(=N)N)NC(=O)[C@H](CCCCN)NC(=O)[C@H]([C@@H](C)CC)NC1=O [compound 194] ({CH2CO}-AV[NMeF]V[NMeW]NYY[Nva(3-Et)]IKR[X1](PEG4)[NMePhe(4-COOH)]CG[Lys(N3)]-NH2; thioether N-15) |  |  |  |  | Kd ([1]; SPR, pH 7.4, Table 1-3-2-2): 4.62 nM; Kd ([2]; SPR, pH 6.0, Table 1-3-2-2): 14.9 nM |
| CC[C@H](C)[C@@H]1NC(=O)[C@H](Cc2ccc(OC)cc2)NC(=O)[C@H](Cc2ccc(N)nc2)NC(=O)[C@H](CC(N)=O)NC(=O)[C@H](Cc2cn(CC(=O)O)c3ccccc23)NC(=O)[C@H](C(C)C)NC(=O)[C@H](Cc2cccc(Cl)c2)N(C)C(=O)[C@H](C(C)C)NC(=O)[C@H](C)NC(=O)CSC[C@@H](C(=O)NCCOCCOCCOCCOCCC(N)=O)NC(=O)[C@H](Cc2ccc(O)cc2)N(C)C(=O)[C@H](Cc2ccncc2)NC(=O)[C@H](CCCCN2CCOCC2)NC(=O)[C@H](CCCCN2CCOCC2)NC(=O)[C@H]([C@@H](C)CC)NC1=O [compound 6] ({CH2CO}-AV[NMePhe(3-Cl)]V[Trp(1-CH2COOH)]N[3Pal(6-NH2)]Y(Me)II[Nle(6-morpholino)][Nle(6-morpholino)][4Pal][NMeY]C[PEG4]-NH2; thioether N-15) |  |  | 6.56 | 21 |  |
| CCC(CC)[C@@H]1NC(=O)[C@H](Cc2ccc(OC)cc2)NC(=O)[C@H](Cc2ccc(N)nc2)NC(=O)[C@H](CC(N)=O)NC(=O)[C@H](Cc2cnc3ccccn23)NC(=O)[C@H](C(C)C)NC(=O)[C@H](Cc2cccc(Cl)c2)N(C)C(=O)[C@H](C(C)C)NC(=O)[C@H](C)NC(=O)CSC[C@@H](C(=O)NCC(=O)N[C@H](CCC(=O)O)C(=O)N[C@H](CCC(=O)O)C(=O)N[C@H](CCC(=O)O)C(=O)N[C@H](CO)C(=O)N[C@H](CO)C(=O)N[C@@H](CCCCN=[N+]=[N-])C(N)=O)NC(=O)[C@H](Cc2ccc(C(=O)O)cc2)N(C)C(=O)[C@H](Cc2ccncc2)NC(=O)[C@H](CCCNC(=N)N)NC(=O)[C@H](CCCNC(=N)N)NC(=O)[C@H]([C@@H](C)CC)NC1=O [compound 184] |  |  |  |  | Kd ([1]; SPR, pH 7.4, Table 1-3-2-2): 136 nM; Kd ([2]; SPR, pH 6.0, Table 1-3-2-2): 121 nM |
| CC[C@H](C)[C@@H]1NC(=O)[C@H](Cc2ccc(OC)cc2)NC(=O)[C@H](Cc2ccc(N)nc2)NC(=O)[C@H](CC(N)=O)NC(=O)[C@H](Cc2c[nH]c3ncccc23)NC(=O)[C@H](C(C)C)NC(=O)[C@H](Cc2cccc(Cl)c2)N(C)C(=O)[C@H](C(C)C)NC(=O)[C@H](C)NC(=O)CSC[C@@H](C(=O)NCCOCCOCCOCCOCCC(N)=O)NC(=O)[C@H](Cc2ccc(O)cc2)N(C)C(=O)[C@H](Cc2ccncc2)NC(=O)[C@H](CCCCN2CCOCC2)NC(=O)[C@H](CCC(=O)NC[C@H](O)[C@@H](O)[C@H](O)[C@H](O)CO)NC(=O)[C@H]([C@@H](C)CC)NC1=O [compound 20] ({CH2CO}-AV[NMePhe(3-Cl)]V[Trp(7-aza)]N[3Pal(6-NH2)]Y(Me)IIE(NH(1-deoxy-D-glucityl))[Nle(6-morpholino)][4Pal][NMeY]C[PEG4]-NH2; thioether N-15) |  |  | 4.08 | 41.3 |  |
| CC[C@H](C)[C@@H]1NC(=O)[C@H](Cc2ccc(OCC(=O)N3CCN(CC(=O)O)CC3)cc2)NC(=O)[C@H](Cc2ccc(O)cc2)NC(=O)[C@H](CC(N)=O)NC(=O)[C@H](Cc2cn(CC(=O)O)c3ccccc23)NC(=O)[C@H](C(C)C)NC(=O)[C@H](Cc2cccc(Cl)c2)N(C)C(=O)[C@H](C(C)C)NC(=O)[C@H](C)NC(=O)CSC[C@@H](C(=O)NCCOCCOCCOCCOCCC(N)=O)NC(=O)[C@H](Cc2ccc(O)cc2)N(C)C(=O)[C@H](Cc2cccc(C(=O)O)c2)NC(=O)[C@H](CCCCN2CCOCC2)NC(=O)[C@H](CCCCN2CCOCC2)NC(=O)[C@H]([C@@H](C)CC)NC1=O [compound 32] ({CH2CO}-AV[NMePhe(3-Cl)]V[Trp(1-CH2COOH)]NYY(CH2CON(CH2CH2)2NCH2COOH)II[Nle(6-morpholino)][Nle(6-morpholino)][Phe(3-COOH)][NMeY]C[PEG4]-NH2; thioether N-15) |  |  | 2.18 | 27 |  |
| CCC(CC)[C@@H]1NC(=O)[C@H](Cc2ccc(OCC(=O)O)cc2)NC(=O)[C@H](Cc2ccc(O)cc2)NC(=O)[C@H](CC(N)=O)NC(=O)[C@H](Cc2cn(CC(=O)O)c3ccccc23)NC(=O)[C@H](C(C)C)NC(=O)[C@H](Cc2cccc(Cl)c2)N(C)C(=O)[C@H](C(C)C)NC(=O)[C@H](C)NC(=O)CSC[C@@H](C(=O)NCCOCCOCCOCCOCCC(N)=O)NC(=O)[C@H](Cc2ccc(O)cc2)N(C)C(=O)[C@H](Cc2ccc(OC)nc2)NC(=O)[C@H](CCCNC(=N)N)NC(=O)[C@H](CCC(N)=O)NC(=O)[C@H]([C@@H](C)CC)NC1=O [compound 101] ({CH2CO}-AV[NMePhe(3-Cl)]V[Trp(1-CH2COOH)]NYY(Carboxymethyl)[Nva(3-Et)]IQR[3Pal(6-OMe)][NMeY]C[PEG4]-NH2; thioether N-15) | 8.63 | 66.7 |  |  |  |
| CC[C@H](C)[C@@H]1NC(=O)[C@H](Cc2ccc(OC)cc2)NC(=O)[C@H](Cc2ccc(N)nc2)NC(=O)[C@H](CC(N)=O)NC(=O)[C@H](Cc2c[nH]c3ccccc23)N(C)C(=O)[C@H](C(C)C)NC(=O)[C@H](Cc2cccc(Cl)c2)N(C)C(=O)[C@H](C(C)C)NC(=O)[C@H](C)NC(=O)CSC[C@@H](C(=O)NCCOCCOCCOCCOCCC(N)=O)NC(=O)[C@H](Cc2ccc(C(=O)O)cc2)N(C)C(=O)[C@H](Cc2ccncc2)NC(=O)[C@H](CCCNC(=N)N)NC(=O)[C@H](CCCCN)NC(=O)[C@H]([C@@H](C)CC)NC1=O [compound 60] ({CH2CO}-AV[NMePhe(3-Cl)]V[NMeW]N[3Pal(6-NH2)]Y(Me)IIKR[4Pal][NMePhe(4-COOH)]C[PEG4]-NH2; thioether N-15) |  |  | 0.755 | 4.71 |  |
| CC[C@H](C)[C@@H]1NC(=O)[C@H](Cc2ccc(OCC(=O)O)cc2)NC(=O)[C@H](Cc2ccc(O)cc2)NC(=O)[C@H](CC(N)=O)NC(=O)[C@H](Cc2c[nH]c3ncccc23)NC(=O)[C@H](C(C)C)NC(=O)[C@H](Cc2cccc(Cl)c2)N(C)C(=O)[C@H](C(C)C)NC(=O)[C@H](C)NC(=O)CSC[C@@H](C(=O)NCCOCCOCCOCCOCCC(N)=O)NC(=O)[C@H](Cc2ccc(O)cc2)N(C)C(=O)[C@H](Cc2cccc(C(=O)NCCOCCOCCOCCOCCOCCOCCOCCOCCC(=O)O)c2)NC(=O)[C@H](CCCNC(=N)N)NC(=O)[C@H](CCC(N)=O)NC(=O)[C@H]([C@@H](C)CC)NC1=O [compound 140] | 5.63 | 22.1 |  |  |  |
| CC[C@H](C)[C@@H]1NC(=O)[C@H](Cc2ccc(OCC(=O)N3CCN(CC(=O)O)CC3)cc2)NC(=O)[C@H](Cc2ccc(O)cc2)NC(=O)[C@H](CC(N)=O)NC(=O)[C@H](Cc2c[nH]c3ncccc23)NC(=O)[C@H](C(C)C)NC(=O)[C@H](Cc2cccc(Cl)c2)N(C)C(=O)[C@H](C(C)C)NC(=O)[C@H](C)NC(=O)CSC[C@@H](C(=O)NCCOCCOCCOCCOCCC(N)=O)NC(=O)[C@H](Cc2ccc(O)cc2)N(C)C(=O)[C@H](Cc2ccncc2)NC(=O)[C@H](CCCNC(=N)N)NC(=O)[C@H](CCCCNC(=O)N2CCN(CC(=O)O)CC2)NC(=O)[C@H]([C@@H](C)CC)NC1=O [compound 18] |  |  | 1.88 | 30 |  |
